# Like-named read-outs stand apart in the source and are kept apart here.
# Key:
# estrogen receptor α = conditions: cited from earlier work; for pRBA: modeled test set TSMOD3
# MCF-7 cells = test: Cell cycle distribution by flow cytometry; type: cell-based, human; conditions: 24 h
# [1] = ligands of wild-type (WT) ERα complexes, training set
# [2] = ligands of mutated (MUT) ERα complexes, training set
# [3] = crystal test set TSCRY (WT and MUT complexes)
structure (smiles),measurement,setting,value
O=C1CC(c2ccccc2)Oc2ccc(O)cc21 (stereo not drawn) [6-Hydroxyflavanone],pRBA,estrogen receptor α,6.05
O=c1cc(-c2ccccc2)oc2ccc(O)cc12 [6-Hydroxyflavone],pRBA,estrogen receptor α,6.40
O=c1cc(-c2ccc(O)cc2)oc2ccc(O)cc12 [-Dihydroxyflavone],pRBA,estrogen receptor α,3.82
O=c1c(O)c(-c2ccc(O)cc2)oc2ccc(O)cc12 [-Trihydroxy flavone],pRBA,estrogen receptor α,3.35
O=c1c(-c2ccc(O)c(O)c2)coc2cc(O)ccc12 [-Trihydroxy isoflavone],pRBA,estrogen receptor α,5.35
O=c1cc(-c2ccccc2)oc2cc(O)c(O)c(O)c12 [Baicalein],pIC50,estrogen receptor α; modeled test set TSMOD1,4.71
same,pRBA,estrogen receptor α,6.05
COc1ccc(-c2coc3cc(O)cc(O)c3c2=O)cc1 [Biochanin A],pRBA,estrogen receptor α,5.37
CC/C(=C(\c1ccccc1)c1ccc(/C=C/C(=O)O)cc1)c1ccccc1 [Compound 1R5K],pIC50,estrogen receptor α; [1],7.40
Oc1ccc([C@@H]2Sc3cc(O)ccc3O[C@@H]2c2ccc(OCCN3CCCCC3)cc2)cc1 [Compound 1SJ0],pIC50,estrogen receptor α,9.09
Oc1ccc2c(c1)CCN(c1ccccc1)[C@H]2c1ccc(N2CCC3CCCCN3C2)cc1 (stereo partly drawn) [Compound 1XQC],pIC50,estrogen receptor α; [1],7.20
CC1(O)CCC2c3ccc4cc(O)ccc4c3CCC21C (stereo not drawn) [Compound 2B1Z],pIC50,estrogen receptor α,7.10
Oc1ccc(-c2n[nH]c3cc(O)ccc23)c(O)c1 [Compound 2QA6],pIC50,estrogen receptor α; [2],7.30
CC1CCN(CCOc2ccc(C(=O)c3c(-c4ccc(O)cc4)sc4cc(O)ccc34)cc2)CC1 [Compound 2R6W],pKi,"estrogen receptor α; Table S1, PDB ligands",9.4
same,pIC50,estrogen receptor α; [2],8.60
O=C(c1ccc(OCCN2CCCC2)cc1)c1c(-c2ccc(O)cc2)sc2cc(O)ccc12 [Compound 2R6Y],pKi,"estrogen receptor α; Table S1, PDB ligands",9.5
same,pIC50,estrogen receptor α; [2],8.90
CC(C)(c1ccc(O)cc1)c1ccc(O)cc1 [Compound 3UU7],pKi,estrogen receptor α; [3],8.79
Oc1ccc(C(c2ccc(O)cc2)(C(F)(F)F)C(F)(F)F)cc1 [Compound 3UUA],pKi,estrogen receptor α; [3],8.79
Oc1ccc(C(=C(Cl)Cl)c2ccc(O)cc2)cc1 [Compound 3UUC],pKi,estrogen receptor α; [3],5.70
OCc1cc(Br)c(-c2ccc(O)cc2)c(-c2ccoc2)c1 [Compound 4DMA],pKi,estrogen receptor α; [3],5.60
C[C@H]1CCC[C@H](O)CCCCCc2cc(O)cc(O)c2C(=O)O1 [Compound 4MG8],pKi,estrogen receptor α; [3],10.00
O=C(c1ccc(O)cc1O)c1ccc(O)cc1O [Compound 4MGC],pKi,estrogen receptor α; [3],7.00
C[C@H]1CCC[C@H](O)CCC/C=C/c2cc(O)cc(O)c2C(=O)O1 [Compound 4TUZ],pKi,estrogen receptor α; [3],10.00
Cc1cc(F)ccc1-c1c(Cc2ccc(/C=C/C(=O)O)cc2)c2ccc(O)cc2oc1=O [Compound 5AK2],pIC50,estrogen receptor α; [2],8.40
"C[C@]12CC[C@@H]3c4ccc(O)cc4CC[C@H]3[C@@H]1CC[C@@H]2O [Compound E2, 17β-estradiol, reference compound]",Cell Cycle (%) G0/G1,MCF-7 cells; 0.1 nM,"17.34 ± 0.35 *^,‡,§ %"
same,Cell Cycle (%) G2/M,MCF-7 cells; 0.1 nM,"54.51 ± 0.57 *^,‡,§ %"
same,Cell Cycle (%) S,MCF-7 cells; 0.1 nM,"28.15 ± 0.52 *^,‡,§ %"
same,Cell Cycle (%) G0/G1,MCF-7 cells; 1 nM,"25.34 ± 0.36 *^,‡,§ %"
same,Cell Cycle (%) G2/M,MCF-7 cells; 1 nM,"45.14 ± 0.33 *^,‡,§ %"
same,Cell Cycle (%) S,MCF-7 cells; 1 nM,"29.52 ± 0.46 *^,‡,§ %"
Cc1c(-c2ccc(O)cc2)nn(-c2ccc(O)cc2)c1-c1ccc(O)cc1 [Compound I3-I1],pKi,estrogen receptor α; modeled test set TSMOD2,7.25
CCc1c(-c2ccc(O)cc2)nn(-c2ccc(O)cc2)c1-c1ccc(O)cc1 [Compound I3-I2],pKi,estrogen receptor α; modeled test set TSMOD2,9.08
CCCc1c(-c2ccc(O)cc2)nn(-c2ccc(O)cc2)c1-c1ccc(O)cc1 [Compound I3-I3],pKi,estrogen receptor α; modeled test set TSMOD2,9.23
CCCCc1c(-c2ccc(O)cc2)nn(-c2ccc(O)cc2)c1-c1ccc(O)cc1 [Compound I3-I4],pKi,estrogen receptor α; modeled test set TSMOD2,8.68
Cc1c(-c2ccc(O)cc2)nn(-c2ccc(O)cc2)c1-c1ccc(OCCN2CCCCC2)cc1 [Compound I3-I-A1],pKi,estrogen receptor α; modeled test set TSMOD2,7.57
CCc1c(-c2ccc(O)cc2)nn(-c2ccc(O)cc2)c1-c1ccc(OCCN2CCCCC2)cc1 [Compound I3-I-A2],pKi,estrogen receptor α; modeled test set TSMOD2,8.60
CCCc1c(-c2ccc(O)cc2)nn(-c2ccc(O)cc2)c1-c1ccc(OCCN2CCCCC2)cc1 [Compound I3-I-A3],pKi,estrogen receptor α; modeled test set TSMOD2,8.36
CCc1c(-c2ccc(O)cc2)nn(-c2ccc(O)cc2)c1-c1ccc(OCCN2CCOCC2)cc1 [Compound I3-I-B],pKi,estrogen receptor α; modeled test set TSMOD2,8.49
Cc1c(-c2ccc(O)cc2)nn(-c2ccc(O)cc2)c1-c1ccc(OCCN2CCCC2)cc1 [Compound I3-I-C1],pKi,estrogen receptor α; modeled test set TSMOD2,7.60
CCc1c(-c2ccc(O)cc2)nn(-c2ccc(O)cc2)c1-c1ccc(OCCN2CCCC2)cc1 [Compound I3-I-C2],pKi,estrogen receptor α; modeled test set TSMOD2,8.72
CCc1c(-c2ccc(O)cc2)nn(-c2ccc(O)cc2)c1-c1ccc(OCCN(C)C)cc1 [Compound I3-I-D],pKi,estrogen receptor α; modeled test set TSMOD2,8.48
CCN(CC)CCOc1ccc(-c2c(C)c(-c3ccc(O)cc3)nn2-c2ccc(O)cc2)cc1 [Compound I3-I-E1],pKi,estrogen receptor α; modeled test set TSMOD2,8.42
CCc1c(-c2ccc(O)cc2)nn(-c2ccc(O)cc2)c1-c1ccc(OCCN(CC)CC)cc1 [Compound I3-I-E2],pKi,estrogen receptor α; modeled test set TSMOD2,8.74
CCc1c(-c2ccc(O)cc2)nn(-c2ccc(O)cc2)c1-c1ccc(OCCN2CCCC2=O)cc1 [Compound I3-I-F],pKi,estrogen receptor α; modeled test set TSMOD2,8.64
CCc1c(-c2ccc(O)cc2)nn(-c2ccc(O)cc2)c1-c1ccc(OCC(O)CO)cc1 (stereo not drawn) [Compound I3-I-G],pKi,estrogen receptor α; modeled test set TSMOD2,8.37
CC(C)CNc1nc(NCC(C)C)nc(NCC(C)C)n1 [Compound I4-1a],pKi,estrogen receptor α; modeled test set TSMOD2,3.19
CCCNc1nc(NCCC)nc(NCCC)n1 [Compound I4-1b],pKi,estrogen receptor α; modeled test set TSMOD2,3.10
c1ccc(CNc2nc(NCc3ccccc3)nc(NCc3ccccc3)n2)cc1 [Compound I4-1c],pKi,estrogen receptor α; modeled test set TSMOD2,3.39
O=C(C=CC=Cc1ccccc1)CCc1ccccc1 [Compound I6-1],pKi,estrogen receptor α; modeled test set TSMOD2,6.19
CN(C)c1ccc(C=CC=CC(=O)CCc2ccc(O)cc2)cc1 [Compound I6-10],pKi,estrogen receptor α; modeled test set TSMOD2,3.63
COc1ccc(CCC(=O)C=CC=Cc2ccc(O)c(OC)c2)cc1 [Compound I6-12],pKi,estrogen receptor α; modeled test set TSMOD2,5.86
COc1cc(C=CC=CC(=O)CCc2ccccc2)ccc1O [Compound I6-14],pKi,estrogen receptor α; modeled test set TSMOD2,6.01
COc1ccc(CCC(=O)C=CC=Cc2ccc([N+](=O)[O-])cc2)cc1 [Compound I6-15],pKi,estrogen receptor α; modeled test set TSMOD2,5.63
O=C(C=CC=Cc1ccc([N+](=O)[O-])cc1)CCc1ccccc1 [Compound I6-16],pKi,estrogen receptor α; modeled test set TSMOD2,6.29
COc1ccc(CCC(=O)C=CC=Cc2ccccc2)cc1 [Compound I6-17],pKi,estrogen receptor α; modeled test set TSMOD2,5.83
COc1ccc(CCC(=O)C=CC=Cc2ccc(N(C)C)cc2)cc1 [Compound I6-18],pKi,estrogen receptor α; modeled test set TSMOD2,5.66
CN(C)c1ccc(C=CC=CC(=O)CCc2ccccc2)cc1 [Compound I6-19],pKi,estrogen receptor α; modeled test set TSMOD2,6.04
Cc1ccccc1N=Cc1cn(-c2ccccc2)nc1-c1ccccc1 [Compound I11-4a1a],pIC50,estrogen receptor α; modeled test set TSMOD1,4.33
Cc1cccc(C)c1N=Cc1cn(-c2ccccc2)nc1-c1ccccc1 [Compound I11-4a2],pIC50,estrogen receptor α; modeled test set TSMOD1,4.13
Cc1ccc(N=Cc2cn(-c3ccccc3)nc2-c2ccccc2)cc1 [Compound I11-4a3b],pIC50,estrogen receptor α; modeled test set TSMOD1,4.25
Brc1ccc(N=Cc2cn(-c3ccccc3)nc2-c2ccccc2)cc1 [Compound I11-4a5],pIC50,estrogen receptor α; modeled test set TSMOD1,5.52
Cc1ccc(N=Cc2cn(-c3ccccc3)nc2-c2ccccc2)cc1[N+](=O)[O-] [Compound I11-4a8],pIC50,estrogen receptor α; modeled test set TSMOD1,5.4
Clc1ccccc1CN=Cc1cn(-c2ccccc2)nc1-c1ccccc1 [Compound I11-4a9],pIC50,estrogen receptor α; modeled test set TSMOD1,4.89
FC(F)(F)c1ccccc1CN=Cc1cn(-c2ccccc2)nc1-c1ccccc1 [Compound I11-4a10],pIC50,estrogen receptor α; modeled test set TSMOD1,3.61
Cc1ccccc1N=Cc1cn(-c2ccc([N+](=O)[O-])cc2)nc1-c1ccccc1 [Compound I11-4b1],pIC50,estrogen receptor α; modeled test set TSMOD1,3.58
Cc1ccc(N=Cc2cn(-c3ccc([N+](=O)[O-])cc3)nc2-c2ccccc2)cc1 [Compound I11-4b2],pIC50,estrogen receptor α; modeled test set TSMOD1,3.58
O=[N+]([O-])c1ccc(-n2cc(C=Nc3ccc(Cl)cc3)c(-c3ccccc3)n2)cc1 [Compound I11-4b3],pIC50,estrogen receptor α; modeled test set TSMOD1,3.61
Cc1ccc(N=Cc2cn(-c3ccc([N+](=O)[O-])cc3)nc2-c2ccccc2)cc1[N+](=O)[O-] [Compound I11-4b6],pIC50,estrogen receptor α; modeled test set TSMOD1,3.63
COc1ccc(-c2cc(=O)c3c(O)c(OC)c(OC)cc3o2)cc1O [Eupatorin],pIC50,estrogen receptor α; modeled test set TSMOD1,5.09
O=c1c(O)c(-c2ccc(O)c(O)c2)oc2cc(O)ccc12 [Fisetin],pIC50,estrogen receptor α; modeled test set TSMOD1,5.38
O=c1c(O)c(-c2ccccc2)oc2cc(O)cc(O)c12 [Galangin],pIC50,estrogen receptor α; modeled test set TSMOD1,4.81
COc1ccc([C@@H]2CC(=O)c3c(O)cc(O)cc3O2)cc1O [Hesperetin],pIC50,estrogen receptor α; modeled test set TSMOD1,4.4
O=C1C[C@@H](c2ccc(O)cc2)Oc2cc(O)cc(O)c21 [Naringenin],pIC50,estrogen receptor α; modeled test set TSMOD1,4.18
O=c1c(O)c(-c2ccc(O)c(O)c2)oc2cc(O)cc(O)c12 [Quercetin],pIC50,estrogen receptor α; modeled test set TSMOD1,4.76

# — article PMC9101642 (Molecules, 2022)
